Assay results from patent US7678810B2, “Thiazole derivative” (Taisho Pharmaceutical Co., Ltd, priority 2004, dated 2010).

Test system: not given
Assay: not given
Details: not given

SMILES | melting point
COCC(=O)NCc1nc(-c2nc(C)cs2)c(-c2ccc3ncsc3c2)[nH]1 [Compound 124] | 223.5 to 224 °C
Cc1csc(-c2nc(CNC(=O)C3CCOCC3)[nH]c2-c2ccc3ncsc3c2)n1 [Compound 129] | 197 to 197.5 °C
Cc1csc(-c2nc(CNC(=O)N3CCOCC3)[nH]c2-c2ccc3ncsc3c2)n1 [Compound 185] | 205.5 to 206 °C
CCOC(=O)NCc1nc(-c2nc(C)cs2)c(-c2ccc3ncsc3c2)[nH]1 [Compound 187] | 183 to 184 °C
Cc1csc(-c2nc(CNC(=O)OCCCl)[nH]c2-c2ccc3ncsc3c2)n1 [Compound 188] | 202 to 204 °C (dec.)
CCCCOC(=O)NCc1nc(-c2nc(C)cs2)c(-c2ccc3ncsc3c2)[nH]1 [Compound 193] | 161 to 162 °C
Cc1csc(-c2nc(CNC(=O)OCC(C)C)[nH]c2-c2ccc3ncsc3c2)n1 [Compound 194] | 142.5 to 144 °C
CCCCCOC(=O)NCc1nc(-c2nc(C)cs2)c(-c2ccc3ncsc3c2)[nH]1 [Compound 195] | 177.5 to 178.5 °C
Cc1csc(-c2nc(CNC(=O)OCC(C)(C)C)[nH]c2-c2ccc3ncsc3c2)n1 [Compound 196] | 170.5 to 171.5 °C
Cc1csc(-c2nc(COC(=O)N(C)C)[nH]c2-c2ccc3ncsc3c2)n1 [Compound 199] | 181.5 to 182 °C
N#Cc1ccc(-c2nc(-c3nccs3)c(-c3ccccn3)n2O)cc1 [Compound 202] | 248 to 251 °C (dec.)
Cc1csc(C(=O)C(=O)c2ccc3c(c2)OCO3)n1 [Compound 203] | 131.5 to 132.5 °C
Cc1csc(C(=O)C(=O)c2ccc(F)cc2)n1 [Compound 206] | 75 to 77 °C
Cc1csc(C#Cc2ccc3c(c2)OCO3)n1 [Compound 217] | 111.5 to 112 °C
Cc1csc(C#Cc2ccc(F)cc2)n1 [Compound 219] | 82 to 83 °C
Cc1csc(-c2nc(C3CCC(=O)N3)[nH]c2-c2ccc3ncsc3c2)n1 (stereo not shown) [Compound 229] | 273 to 275 °C (dec.)
Cc1csc(-c2nc(C3CCC(=O)N3)[nH]c2-c2ccc3ncsc3c2)n1 (stereo not shown) [Compound 230] | 263 to 268 °C (dec.)
COc1ccc(Cn2c(C)nc(-c3nc(C)cs3)c2-c2ccc3ncsc3c2)cc1 [Compound 231] | 144 to 145 °C
Cc1csc(-c2nc(C)n(Cc3ccc(O)cc3)c2-c2ccc3ncsc3c2)n1 [Compound 232] | 215.5 to 218.5 °C
Cc1csc(-c2nc(C)n(Cc3ccc(OCCN(C)C)cc3)c2-c2ccc3ncsc3c2)n1 [Compound 233] | 146.5 to 148 °C
COCCOc1ccc(Cn2c(C)nc(-c3nc(C)cs3)c2-c2ccc3ncsc3c2)cc1 [Compound 234] | 129.5 to 131 °C
CNC(=O)OCc1nc(-c2nc(C)cs2)c(-c2ccc3ncsc3c2)[nH]1 [Compound 235] | 158 to 159.5 °C
CNC(=O)NCc1nc(-c2nc(C)cs2)c(-c2ccc3ncsc3c2)[nH]1 [Compound 238] | 239 to 239.5 °C
Cc1csc(-c2nc(CNC(=O)C3CCCCO3)[nH]c2-c2ccc3ncsc3c2)n1 (stereo not shown) [Compound 241] | 220.5 to 222 °C
Cc1nc(-c2nc(C(F)(F)F)cs2)c(-c2ccc3ncsc3c2)[nH]1 [Compound 244] | 190.5 to 192 °C
O=C(C(=O)c1nc(C(F)(F)F)cs1)c1ccc2ncsc2c1 [Compound 251] | 163.5 to 164.5 °C

Test system: Smad2/3 phosphorylation caused by TGF-β1 stimulation
Assay: Smad2/3 phosphorylation inhibitory activity test
Format: cell-based
Details: Homo sapiens; A549 cells; compound 2 hours before TGF-β1 1 ng/ml, 1 hour; anti-Smad2/3 immunoprecipitation, Western blotting
Experimental: A549 cells were seeded to a plate, and cultured overnight in a Ham's F-12 medium supplemented with 10% FBS. This medium was replaced with the same medium containing the compounds or not containing the compounds, and after incubated another 2 hours, TGF-01 was added thereto so as to make its final concentration 1 ng/ml, and further incubated another 1 hour. After completion of incubation, the medium was removed, and the cells were washed with PBS and then lysed by a RIPA solution. The cell lysate solution was subjected to immunoprecipitation using anti-Smad2/3 antibody, and then Western blotting was performed. Using a rabbit anti-phosphorylated serine antibody as a primary antibody, a HRP-labeled anti-rabbit IgG antibody as a secondary antibody, and ECL Western blotting detection reagents as detection reagents, light emitting amounts were measured using Limi-Imager F1 (Roche Diagnostics) etc.
Following the above described methods, the inhibitory activities of the respective compounds against Smad2/3 phosphorylation caused by TGF-β1 stimulation were measured, and IC50 values were calculated.

SMILES | IC50 [µM]
Cc1csc(-c2nc(-c3ccc(C(N)=O)cc3)[nH]c2-c2ccc3ncsc3c2)n1 [Compound 50] | 0.08
Cc1csc(-c2nc(C)[nH]c2-c2ccc3ncsc3c2)n1 [Compound 52] | 0.024
CCCCc1nc(-c2nc(C)cs2)c(-c2ccc3ncsc3c2)[nH]1 [Compound 57] | 0.045
Cc1csc(-c2nc(N)[nH]c2-c2ccc3ncsc3c2)n1 [Compound 68] | 0.031
Cc1csc(-c2nc(C3CCC(=O)CC3)[nH]c2-c2ccc3ncsc3c2)n1 [Compound 80] | 0.089
CCCC(O)CCc1nc(-c2nc(C)cs2)c(-c2ccc3ncsc3c2)[nH]1 (stereo not shown) [Compound 81] | 0.052
Cc1csc(-c2nc(C3CCOCC3)[nH]c2-c2ccc3ncsc3c2)n1 [Compound 83] | 0.099
COCCCCc1nc(-c2nc(C)cs2)c(-c2ccc3ncsc3c2)[nH]1 [Compound 87] | 0.038
CCCC(=O)NCc1nc(-c2nc(C)cs2)c(-c2ccc3ncsc3c2)[nH]1 [Compound 105] | 0.032
COCC(=O)NCc1nc(-c2nc(C)cs2)c(-c2ccc3ncsc3c2)[nH]1 [Compound 124] | 0.067
Cc1csc(-c2nc(CNC(=O)C3CCOCC3)[nH]c2-c2ccc3ncsc3c2)n1 [Compound 129] | 0.107
CCCNC(=O)CCCCc1nc(-c2nc(C)cs2)c(-c2ccc3ncsc3c2)[nH]1 [Compound 171] | 0.089
CCNC(=O)NCc1nc(-c2nc(C)cs2)c(-c2ccc3ncsc3c2)[nH]1 [Compound 175] | 0.126
Cc1csc(-c2nc(CNC(=O)N(C)C)[nH]c2-c2ccc3ncsc3c2)n1 [Compound 176] | 0.077
COC(=O)NCc1nc(-c2nc(C)cs2)c(-c2ccc3ncsc3c2)[nH]1 [Compound 186] | 0.038
C#CCOC(=O)NCc1nc(-c2nc(C)cs2)c(-c2ccc3ncsc3c2)[nH]1 [Compound 191] | 0.031
Cc1csc(-c2nc(CN3CCOC3=O)[nH]c2-c2ccc3ncsc3c2)n1 [Compound 197] | 0.092
CCNC(=O)OCc1nc(-c2nc(C)cs2)c(-c2ccc3ncsc3c2)[nH]1 [Compound 198] | 0.093
Cc1csc(-c2nc(COC(=O)N(C)C)[nH]c2-c2ccc3ncsc3c2)n1 [Compound 199] | 0.07
CCCC(=O)CCc1nc(-c2nc(C)cs2)c(-c2ccc3ncsc3c2)[nH]1 [Compound 201] | 0.042
